Reference: ChEMBL document CHEMBL1201862, “PubChem BioAssay data set” (2004)
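Briefly, cells in 96-well plates were exposed to five compound concentrations for 48 h, and endpoints were estimated by linear interpolation. The concentration for 50% growth inhibition is given as GI50.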 The source made the active and inactive calls. Rule as the data show it: active = GI50 up to about 1.1 µM and inactive = higher.

What was measured:
Assay in all cases: growth of human tumour cells (NCI), 48 h
[1] = system: 786-0
[2] = system: A498
[3] = system: A549
[4] = system: ACHN
[5] = system: CAKI-1
[6] = system: CCRF-CEM
[7] = system: COLO 205
[8] = system: DLD-1
[9] = system: DMS-114
[10] = system: DMS-273
[11] = system: EKVX
[12] = system: HCC 2998
[13] = system: HCT-116
[14] = system: HCT-15
[15] = system: HL-60
[16] = system: HOP-18
[17] = system: HOP-62
[18] = system: HOP-92
[19] = system: HT-29
[20] = system: IGROV-1
[21] = system: K562
[22] = system: KM-20L2
[23] = system: KM12
[24] = system: LOX IMVI
[25] = system: LXFL 529
[26] = system: M14
[27] = system: M19-MEL
[28] = system: MOLT-4
[29] = system: Malme-3M
[30] = system: NCI-H226
[31] = system: NCI-H23
[32] = system: NCI-H460
[33] = system: OVCAR-3
[34] = system: OVCAR-4
[35] = system: OVCAR-5
[36] = system: OVCAR-8
[37] = system: RXF 393
[38] = system: RXF 631
[39] = system: SF-268
[40] = system: SF-295
[41] = system: SF-539
[42] = system: SK-MEL-28
[43] = system: SK-MEL-2
[44] = system: SK-MEL-5
[45] = system: SN12C
[46] = system: SNB-19
[47] = system: SNB-75
[48] = system: SNB-78
[49] = system: SR
[50] = system: SW-620
[51] = system: TK-10
[52] = system: U-251
[53] = system: UACC-257
[54] = system: UACC-62
[55] = system: UO-31
[56] = system: XF498
[57] = system: NCI-H522
[58] = system: RPMI-8226
[59] = system: SK-OV-3

SMILES: O=C(c1ccco1)c1ccccc1C(=O)c1ccco1
- GI50 [1]: > 100 µM (inactive)
- GI50 [2]: > 100 µM (inactive)
- GI50 [3]: > 100 µM (inactive)
- GI50 [4]: > 100 µM (inactive)
- GI50 [5]: > 100 µM (inactive)
- GI50 [6]: > 100 µM (inactive)
- GI50 [7]: > 100 µM (inactive)
- GI50 [8]: > 100 µM (inactive)
- GI50 [9]: > 100 µM (inactive)
- GI50 [10]: > 100 µM (inactive)
- GI50 [11]: > 100 µM (inactive)
- GI50 [12]: > 100 µM (inactive)
- GI50 [13]: > 100 µM (inactive)
- GI50 [14]: > 100 µM
- GI50 [15]: > 100 µM (inactive)
- GI50 [16]: 61.5 µM (inactive)
- GI50 [17]: > 100 µM (inactive)
- GI50 [18]: > 100 µM (inactive)
- GI50 [19]: > 100 µM (inactive)
- GI50 [20]: > 100 µM (inactive)
- GI50 [21]: > 100 µM (inactive)
- GI50 [22]: > 100 µM (inactive)
- GI50 [23]: > 100 µM (inactive)
- GI50 [24]: > 100 µM (inactive)
- GI50 [25]: > 100 µM (inactive)
- GI50 [26]: > 100 µM (inactive)
- GI50 [27]: > 100 µM (inactive)
- GI50 [28]: > 100 µM (inactive)
- GI50 [29]: > 100 µM (inactive)
- GI50 [30]: > 100 µM (inactive)
- GI50 [31]: > 100 µM (inactive)
- GI50 [32]: > 100 µM (inactive)
- GI50 [33]: > 100 µM (inactive)
- GI50 [34]: > 100 µM (inactive)
- GI50 [35]: > 100 µM (inactive)
- GI50 [36]: > 100 µM (inactive)
- GI50 [37]: > 100 µM (inactive)
- GI50 [38]: > 100 µM (inactive)
- GI50 [39]: > 100 µM (inactive)
- GI50 [40]: > 100 µM (inactive)
- GI50 [41]: > 100 µM (inactive)
- GI50 [42]: > 100 µM (inactive)
- GI50 [43]: > 100 µM (inactive)
- GI50 [44]: > 100 µM (inactive)
- GI50 [45]: > 100 µM (inactive)
- GI50 [46]: > 100 µM (inactive)
- GI50 [47]: > 100 µM (inactive)
- GI50 [48]: > 100 µM (inactive)
- GI50 [49]: > 100 µM (inactive)
- GI50 [50]: > 100 µM (inactive)
- GI50 [51]: > 100 µM (inactive)
- GI50 [52]: > 100 µM (inactive)
- GI50 [53]: > 100 µM (inactive)
- GI50 [54]: > 100 µM (inactive)
- GI50 [55]: > 100 µM (inactive)
- GI50 [56]: > 100 µM (inactive)

SMILES: COc1ccc2nc3cc(Cl)ccc3c(Sc3ccc([N+](=O)[O-])cc3)c2c1
- GI50 [1]: > 10 µM (inactive)
- GI50 [2]: > 10 µM (inactive)
- GI50 [3]: > 10 µM (inactive)
- GI50 [4]: > 10 µM (inactive)
- GI50 [5]: > 10 µM (inactive)
- GI50 [6]: > 10 µM (inactive)
- GI50 [7]: > 10 µM (inactive)
- GI50 [8]: > 10 µM (inactive)
- GI50 [9]: > 10 µM (inactive)
- GI50 [10]: > 10 µM (inactive)
- GI50 [11]: > 10 µM (inactive)
- GI50 [12]: > 10 µM (inactive)
- GI50 [13]: > 10 µM (inactive)
- GI50 [14]: > 10 µM
- GI50 [15]: > 100 µM (inactive)
- GI50 [16]: > 10 µM (inactive)
- GI50 [17]: > 10 µM (inactive)
- GI50 [18]: > 10 µM (inactive)
- GI50 [19]: > 100 µM (inactive)
- GI50 [20]: > 10 µM (inactive)
- GI50 [21]: > 10 µM (inactive)
- GI50 [22]: > 10 µM (inactive)
- GI50 [23]: > 10 µM (inactive)
- GI50 [24]: > 10 µM (inactive)
- GI50 [25]: > 10 µM (inactive)
- GI50 [26]: > 10 µM (inactive)
- GI50 [27]: > 10 µM (inactive)
- GI50 [28]: > 10 µM (inactive)
- GI50 [29]: > 10 µM (inactive)
- GI50 [30]: > 10 µM (inactive)
- GI50 [31]: > 10 µM (inactive)
- GI50 [32]: > 10 µM (inactive)
- GI50 [57]: > 10 µM (inactive)
- GI50 [33]: > 10 µM (inactive)
- GI50 [34]: > 10 µM (inactive)
- GI50 [35]: > 10 µM (inactive)
- GI50 [36]: > 10 µM (inactive)
- GI50 [58]: > 100 µM (inactive)
- GI50 [37]: > 10 µM (inactive)
- GI50 [38]: > 10 µM (inactive)
- GI50 [39]: > 10 µM (inactive)
- GI50 [40]: > 10 µM (inactive)
- GI50 [41]: > 10 µM (inactive)
- GI50 [42]: > 10 µM (inactive)
- GI50 [43]: > 10 µM (inactive)
- GI50 [44]: > 10 µM (inactive)
- GI50 [59]: > 10 µM (inactive)
- GI50 [45]: > 10 µM (inactive)
- GI50 [46]: > 10 µM (inactive)
- GI50 [47]: 34.1 µM (inactive)
- GI50 [48]: > 10 µM (inactive)
- GI50 [49]: > 10 µM (inactive)
- GI50 [50]: > 10 µM (inactive)
- GI50 [51]: > 10 µM (inactive)
- GI50 [52]: > 10 µM (inactive)
- GI50 [53]: > 10 µM (inactive)
- GI50 [54]: > 10 µM (inactive)
- GI50 [55]: > 10 µM (inactive)
- GI50 [56]: > 10 µM (inactive)
